Data reported in article PMC3551932, “STK295900, a Dual Inhibitor of Topoisomerase 1 and 2, Induces G2 Arrest in the Absence of DNA Damage” (PLoS ONE, 2013).

Key:
HeLa cells [1] = assay: Antagonistic effect on Top poison-induced DNA damage (γ-H2A.X immunoblot); assay type: cell-based, human
Protocol: Cells were lysed with cold RIPA buffer (50 mM Tris-HCl pH 8.0, 150 mM NaCl, 1% NP-40, 0.5% sodium deoxycholate, 0.1% SDS) containing freshly added protease inhibitor, phosphatase inhibitor (SIGMA), 1 mM DTT, and 1 mM Na3VO4 on ice for 1 h. Whole cell lysates were centrifuged at 15,000 rpm for 20 min and then the supernatant was transferred into a new tube. An appropriate amount of cell lysate was subjected to SDS-PAGE. Then the resolved proteins were transferred onto a PVDF membrane (Bio-Rad) for immunoblot analyses with specific antibodies. The proteins were detected using chemiluminescence solution (Thermo Scientific, Rockford, IL).
(§1) Supercoiled DNA relaxation assay for (A) topoisomerase 1 (Top 1) and (B) topoisomerase 2 (Top 2). Supercoiled pBR322 plasmid DNA was incubated at 37°C for 30 min with Top 1 enzyme (A) or Top 2α (B) in the presence of various concentrations of indicated compounds. DNA samples were separated by electrophoresis on a 1% agarose gel, stained with ethidium bromide, and visualized by UV light. (−), supercoiled DNA alone; oc, open circular; sc, supercoiled. […] HeLa cells were pretreated with 10 µM of STK295900 for 30 min and then incubated with the indicated concentrations of camptothecin for 1 h. Treated cells were lysed and subjected to immunoblot analyses with antibody against γ-H2A.X. β-actin was used as a loading control. […] HeLa cells were pretreated with STK295900 at 10, 20, 30, or 50 µM or ICRF-193 at 10 µM for 30 min. […] Treated cells were then lysed and subjected to immunoblot analyses with antibody against γ-H2A.X. β-actin was used as a loading control.
The lysates were subjected to immunoblot analyses with γ-H2A.X antibody.

MRC5CV1 cells = assay: Cell growth inhibition assay, MRC5CV1; assay type: cell-based, human; conditions: Homo sapiens, 96 h; Table 2 comparison; MRC5CV1, non-cancer; growth up to 4 days
Excerpt: (§2) Human epitheloid cervical carcinoma HeLa cells, human breast adenocarcinoma MCF7 and MDA-MB-231cells, human hepatocellular carcinoma HepG2 cells, human colon adenocarcinoma HT-29 cells, and human colorectal carcinoma HCT-116 cells were purchased from ATCC® and maintained in DMEM medium. Human prostate carcinoma PC-3 cells (purchased from ATCC®), human gastric carcinoma SNU-484 and SNU-601(obtained from Korean Cell Line Bank (KCLB)), human leukemia K-562 and HL-60 cells (purchased from ATCC®), immortalized human prostate epithelial 267B1cells, and immortalized human embryonic lung fibroblast MRC5CV1 cells were maintained in RPMI 1640 medium whereas immortalized retinal pigment epithelial hTERT RPE-1 cells (purchased from ATCC®) were maintained in DMEM/F12 medium. All cell lines were cultured in media supplemented with 10% fetal bovine serum, 100 U/ml penicillin, and […] streptomycin at 37°C in a 5% CO2 incubator.
(§3) Cells were seeded at the appropriate amount (1–2×10^3 cells) in triplicate in 96-well plates for 24 h and then treated with various concentrations of STK295900. Cell growth was determined by using EZ-CyTox cell viability assay kit (Daeil Lab. Service, Seoul, Korea). Ten microliters of WST solution were added to the treated cells at 24, 48, 72, and 96 h. Cells were further incubated at 37°C for 2 h and the absorbance was measured at 450 nm.

[2] = tested on: cancer (HeLa, MCF7, HepG2, and HT-29) and non-cancerous cell lines (hTERT RPE-1, 267B1, and MRC5CV1); assay: Cell growth inhibition assay, cancer and non-cancerous cell lines compared; assay type: cell-based, human; conditions: cancer (HeLa, MCF7, HepG2, HT-29) vs non-cancer (hTERT RPE-1, 267B1, MRC5CV1)
Excerpt: as §2, §3

PC-3 cells = assay: Cell growth inhibition assay, PC-3; assay type: cell-based; conditions: Homo sapiens, 96 h; Table 1; PC-3, prostate carcinoma; growth up to 4 days
Excerpt: as §2, §3

HL-60 cells = assay: Cell growth inhibition assay, HL-60; assay type: cell-based; conditions: Homo sapiens, 96 h; Table 1; HL-60, leukemia; growth up to 4 days
Excerpt: as §2, §3

HeLa cells [3] = assay: Flow cytometric analysis for cell cycle distribution; assay type: cell-based, human; conditions: 24 h, control around 25%
Protocol: For cell cycle analysis, HeLa cells were harvested following compound treatment for 24 h and stained with propidium iodide (PI) according to the instruction of Cycle Test Plus DNA Reagent kit from BD Biosciences (San Jose, CA). Flow cytometric analysis was performed using a FACSCalibur instrument (Becton Dickinson, San Jose, CA).
Figure 2 STK295900 induces G2 phase arrest in HeLa cells. (A) Flow cytometric analysis for cell cycle distribution. HeLa cells were treated with the indicated concentrations of STK295900 for 24 h. Treated cells were then stained with propidium iodide (PI) and processed for cell cycle analysis. The bar graph represents the mean percentage of each cell cycle phase ± SD from three independent experiments. * = p<0.05 versus the respective G1, S, or G2/M phase of DMSO-treated cells. (B) Mitotic index of STK295900. HeLa cells were treated with the indicated concentrations of STK295900 for 24 h. Cells were then stained with Hoechst 33342 and mitotic cells were counted. […] (C) Cell cycle related proteins expression. […] Treated cells were lysed and subjected to immunoblot analyses with antibodies against cyclin A, cyclin B1, phospho-Histone H3 (S10), and Histone H3. β-actin was used as a loading control.

HepG2 cells = assay: Cell growth inhibition assay, HepG2; assay type: cell-based, human; conditions: Homo sapiens, HepG2, 96 h, growth up to 4 days
Excerpt: as §2, §3

DNA gyrase = conditions: targeting DNA gyrase; cited from earlier work
HCT-116 cells = assay: Cell growth inhibition assay, HCT-116; assay type: cell-based; conditions: Homo sapiens, 96 h, Table 1, growth up to 4 days
Excerpt: as §2, §3

human topoisomerase 2α = human topoisomerase 2α (Homo sapiens, UniProt P11388); assay: Supercoiled DNA relaxation assay for topoisomerase 2α; assay type: biochemical; conditions: pBR322, 37°C, 30 min
Protocol: After incubation, the reaction was terminated by addition of 2 µl of 10% SDS. The reaction mixtures were treated with 50 µg/ml proteinase K for 30 min at 37°C and then DNA was extracted with CIA (chloroform:isoamyl alcohol, 24∶1). Samples were resolved by electrophoresis on a 1% agarose gel. After staining the electrophoresed gel with ethidium bromide, DNA bands were visualized by UV light and photographed on Gel Doc XR.
as §1

267B1 cells = assay: Cell growth inhibition assay, 267B1; assay type: cell-based, human; conditions: Homo sapiens, 96 h; Table 2 comparison; 267B1, non-cancer; growth up to 4 days
Excerpt: as §2, §3

human topoisomerase 2α, sequence (P11388 whole entry): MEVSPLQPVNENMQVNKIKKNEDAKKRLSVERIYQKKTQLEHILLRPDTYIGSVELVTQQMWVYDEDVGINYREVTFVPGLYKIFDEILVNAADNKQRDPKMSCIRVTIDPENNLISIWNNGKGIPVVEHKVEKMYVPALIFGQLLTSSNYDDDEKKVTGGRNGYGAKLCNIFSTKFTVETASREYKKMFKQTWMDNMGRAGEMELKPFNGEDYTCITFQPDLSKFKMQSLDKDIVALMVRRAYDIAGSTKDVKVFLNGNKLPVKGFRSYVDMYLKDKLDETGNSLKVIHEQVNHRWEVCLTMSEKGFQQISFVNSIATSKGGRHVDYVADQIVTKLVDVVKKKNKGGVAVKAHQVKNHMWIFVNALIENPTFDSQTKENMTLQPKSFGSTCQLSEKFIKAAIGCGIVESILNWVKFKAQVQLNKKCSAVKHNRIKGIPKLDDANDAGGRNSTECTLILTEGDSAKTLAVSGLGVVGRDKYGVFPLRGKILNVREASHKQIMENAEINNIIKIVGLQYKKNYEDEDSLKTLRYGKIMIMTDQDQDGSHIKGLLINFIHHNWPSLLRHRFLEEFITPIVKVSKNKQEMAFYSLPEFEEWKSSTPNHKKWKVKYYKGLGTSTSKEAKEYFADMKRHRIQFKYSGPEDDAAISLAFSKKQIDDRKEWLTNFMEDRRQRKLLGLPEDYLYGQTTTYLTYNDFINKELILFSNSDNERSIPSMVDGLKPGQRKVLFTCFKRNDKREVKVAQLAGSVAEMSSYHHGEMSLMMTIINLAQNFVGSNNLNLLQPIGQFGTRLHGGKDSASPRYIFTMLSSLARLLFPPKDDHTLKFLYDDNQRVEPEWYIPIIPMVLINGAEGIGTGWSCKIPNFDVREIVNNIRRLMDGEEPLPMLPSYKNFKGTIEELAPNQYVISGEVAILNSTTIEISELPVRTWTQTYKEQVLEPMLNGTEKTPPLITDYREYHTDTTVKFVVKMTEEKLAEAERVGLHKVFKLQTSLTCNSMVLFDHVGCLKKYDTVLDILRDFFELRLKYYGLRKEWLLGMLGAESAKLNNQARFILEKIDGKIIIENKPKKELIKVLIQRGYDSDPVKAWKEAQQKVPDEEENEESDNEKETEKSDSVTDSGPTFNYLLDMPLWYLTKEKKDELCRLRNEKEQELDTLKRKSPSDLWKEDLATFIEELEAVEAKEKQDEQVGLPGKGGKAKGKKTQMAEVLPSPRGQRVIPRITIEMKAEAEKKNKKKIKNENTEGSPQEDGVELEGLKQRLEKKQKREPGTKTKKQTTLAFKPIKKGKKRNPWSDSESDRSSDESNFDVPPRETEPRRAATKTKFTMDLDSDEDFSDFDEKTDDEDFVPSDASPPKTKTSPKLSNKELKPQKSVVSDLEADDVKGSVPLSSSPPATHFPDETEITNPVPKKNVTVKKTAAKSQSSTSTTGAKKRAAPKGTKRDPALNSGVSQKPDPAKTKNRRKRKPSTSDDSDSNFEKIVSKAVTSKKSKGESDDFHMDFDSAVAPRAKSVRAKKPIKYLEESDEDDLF

Nc1ccc(-c2nc3ccc(-c4ccc5nc(-c6ccc(N)cc6)[nH]c5c4)cc3[nH]2)cc1 [STK295900, 4,4′-(3H,3′H-5,5′-bibenzimidazole-2,2′-diyl)dianiline]
effect of pretreatment on etoposide-induced γ-H2A.X (HeLa cells [1]; pretreated up to 50 µM for 30 min, then 10 µM etoposide 1 h): could not prevent | effect of pretreatment on camptothecin-induced γ-H2A.X (HeLa cells [1]; pretreated with 10 µM for 30 min, then camptothecin 1 h): dramatically reduced | IC50 (MRC5CV1 cells): 950 nM | selectivity of toxicity, cancer versus non-cancer cells [2]: selective toxicity against cancer cells | IC50 (PC-3 cells): 2720 nM | IC50 (HL-60 cells): 500 nM | G2/M population (HeLa cells [3]; 0.5 µM): about 35% | G2/M population (HeLa cells [3]; 1 µM): ~55% | G2/M population (HeLa cells [3]; 5 µM): ~65% | IC50 (HepG2 cells; Table 1, HepG2, hepatocellular carcinoma): 170 nM | IC50 (HepG2 cells; Table 2 comparison, HepG2): 140 nM | anti-staphylococcal activity (DNA gyrase): potent anti-staphylococcal agent | IC50 (HCT-116 cells): 2830 nM | Top 2α-mediated DNA relaxation (human topoisomerase 2α): inhibited Top 2α-mediated DNA relaxation | IC50 (267B1 cells): 1610 nM
